{"source": "patent US9814754B2", "about": "“Combinations with a backbone-cyclized peptide” (POLYPHOR AG, priority 2012, dated 2017)", "assay_type_in_all_cases": "in vivo", "key": {"[1]": {"tested_on": "Pseudomonas aeruginosa clinical isolate PA18298", "assay": "Murine pneumonia model, compound 1 in combination with amikacin (Example 4)", "conditions": "murine lungs", "method": "The efficacy and ED50 of the compound of formula (I) (“compound 1”) in combination with amikacin was determined against Pseudomonas aeruginosa clinical isolate PA18298 in a pneumonia model in mice. Colony counts in lung were determined at 20 hours post treatment.\n(§1) Fresh overnight colonies of PA18298 from a 5% Horse Blood Agar plate were suspended in 0.9% sterile saline to approximately 10^8 CFU/ml and further diluted to approximately 5×10^7 CFU/ml. Female mice (DBA/2, outbred, 18-22 g, Charles River) were anesthetized with 0.1 ml of Zoletil and inoculated via the nose with a pipette with 0.05 ml of the bacteria suspension containing approximately 10^6 CFU. 4 hours after inoculation, the mice were treated orally with 45 μl neurophen (20 mg ibuprofen/ml corresponding to approximately 30 mg/kg) as pain relief.\n175 mg of amikacin (Sigma) were dissolved in 5 ml 0.9% sterile saline to a concentration of 35 mg/ml and further diluted with saline to 3 mg/ml. The mice were treated subcutaneously with 0.2 ml in the neck region with a single dose at 3 hours post infection corresponding to 30 mg/kg on the basis of a mean animal weight of 20 g.\nOne vial containing 10 mg of active compound 1 was dissolved in 2 ml 0.9% sterile saline to a concentration of 5 mg/ml and further diluted with saline […], 1, 0.55, 0.275 and 0.137 mg/ml. The mice were treated subcutaneously with 0.2 ml in the neck region with a single dose at 4 hours post infection with a dose calculation based on a mean animal weight of 20 g. Colistin was used as a control in the same manner with a fixed dose of 20 mg/kg.\n(§2) Colony counts were determined post inoculation at 4 hours (untreated mice) and 24 hours (treated and vehicle-only treated mice). Immediately after the mice were sacrificed, the lungs were collected and frozen at −20° C. After thawing, the organs were homogenized in 1 ml 0.9% saline. Each sample was then 10 fold diluted in saline and 20 μl spots were applied on blood agar plates. All agar plates were incubated 18-24 hours at 35° C. in ambient air.\nThe CFU/ml in the inoculum was determined to 7.4 log10 CFU/ml corresponding to 6.17 log10 CFU/mouse.\nAt 4 hours after inoculation the mean log 10 CFU/lung was 5.06 and the CFU level declined to 1.55 mean log 10 CFU/lung after 24 hours in the vehicle group."}, "[2]": {"tested_on": "Pseudomonas aeruginosa clinical isolate PA9349", "assay": "Murine pneumonia model, compound 1 alone (Reference 2)", "conditions": "for mean CFU level compared to the vehicle group: lungs", "method": "Efficacy in Murine Pneumonia Model Against Pseudomonas aeruginosa PA9349 and Estimation of ED50\nThe efficacy and ED50 of the compound of formula (I) (“compound 1”) was determined against Pseudomonas aeruginosa clinical isolate PA9349 in a pneumonia model in mice. Colony counts in the lungs were determined at 18-20 hours post treatment.\nas §1, with “PA9349” for “PA18298”, “5×10^6” for “5×10^7”, “Zoletil (tiletamine+zolazepam)” for “Zoletil”, “5×10^5” for “10^6”\nOne vial containing 10 mg of active compound 1 was dissolved in 5 ml 0.9% sterile saline to a concentration of 2 mg/ml and was further 2-fold diluted with saline to 1, 0.5, 0.25, 0.125 and 0.06 mg/ml. The mice were treated subcutaneously with 0.2 ml in the neck region with a single dose at 4 hours post infection with a dose calculation based on a mean animal weight of 20 g. As positive control colistin was used in the same manner with a fixed dose of 40 mg/kg.\nas §2, with “10-fold” for “10 fold”, “18-48” for “18-24”\nThe CFU/ml in the inoculum was determined to 7.29 log10 CFU/ml corresponding to 5.98 log10 CFU/mouse.\nAt 4 hours after infection the mean log10 CFU/lung was 3.47 and the CFU level increased to 4.92 at […] post inoculation in the vehicle-only group."}, "[3]": {"tested_on": "Pseudomonas aeruginosa clinical isolate PA9349", "assay": "Murine pneumonia model, compound 1 in combination with ciprofloxacin (Example 3)", "method": "Colony counts in lung were determined at 20 hours post treatment.\nFresh overnight colonies of PA9349 from a 5% Horse Blood Agar plate were suspended in 0.9% sterile saline to approximately 10^8 CFU/ml and further diluted to approximately 10^7 CFU/ml. Female mice (C57BL/6 […], outbred, 20-25 g, Hellenic Pasteur Institute) were anesthetized with ether and inoculated via the nose with a pipette with 0.05 ml of the bacteria suspension containing approximately 10^6 CFU. After inoculation, mice were treated with paracetamol suppositories as a pain relief.\nThe mice were treated subcutaneously with 0.2 ml in the neck region with a single dose at 3 hours post infection corresponding to 20 mg/kg on the basis of a mean animal weight of 20 g.\n1 vial was further diluted with saline to 1, 0.8 and 0.4 mg/ml. The mice were treated subcutaneously with 0.25 ml (25 mg/kg dose) or 0.2 ml (for all other doses) in the neck region with a single dose at 4 hours post infection with a dose calculation based on a mean animal weight of 20 g.\nas §2"}, "[4]": {"conditions": "in presence of 30 mg/kg amikacin"}, "[5]": {"conditions": "compound 1 alone, s.c., murine lungs"}, "[6]": {"conditions": "in presence of 20 mg/kg ciprofloxacin, murine lungs"}}, "note": "Square brackets hold non-standard residues; d marks the D form. dDab = NCC[C@@H](N)C(=O)O; Orn = NCCC[C@H](N)C(=O)O; Dab = NCC[C@H](N)C(=O)O"}
{"substance": "cyclo(TWI[Dab][Orn][dDab][Dab]W[Dab][Dab]AS[dP]P) [compound 1]", "values": [{"measurement": "Top level", "setting": "[1]; compound 1 s.c. in presence of 30 mg/kg amikacin (s.c., 3 h post infection)", "result": "−3.03", "unit": "log10 CFU/ml"}, {"measurement": "Bottom level", "setting": "[1]; [4]", "result": "−3.82", "unit": "log10 CFU/ml"}, {"measurement": "Emax", "setting": "[1]; [4]", "result": 0.79, "unit": "log10 CFU/ml"}, {"measurement": "ED50", "setting": "[1]; in presence of fixed dose of 30 mg/kg amikacin", "result": 9.1, "unit": "mg/kg"}, {"measurement": "mean CFU level compared to the vehicle group", "setting": "[2]; 10 mg/kg treatment group", "result": "reduction of the mean CFU level"}, {"measurement": "mean CFU level compared to the vehicle group", "setting": "[2]; 20 mg/kg treatment group", "result": "significant reduction"}, {"measurement": "Top level", "setting": "[2]; compound 1 alone, s.c. single dose 4 h post infection, murine lungs", "result": 1.59, "unit": "log10 CFU/ml"}, {"measurement": "Bottom level", "setting": "[2]; [5]", "result": "−0.80", "unit": "log10 CFU/ml"}, {"measurement": "Emax", "setting": "[2]; [5]", "result": "−2.4", "unit": "log10 CFU/ml"}, {"measurement": "Static dose", "setting": "[2]; [5]", "result": 9.15, "unit": "mg/kg"}, {"measurement": "ED50", "setting": "[2]; compound 1 alone, s.c., murine lungs, sigmoidal dose-response model (variable slope)", "result": 7.35, "unit": "mg/kg"}, {"measurement": "effect on bacterial loads", "setting": "[3]; 5.5 mg/kg alone, lung, p<0.001", "result": "significant effect on reducing the bacterial loads"}, {"measurement": "CFU levels compared to vehicle treatment", "setting": "[3]; combination of compound 1 at 1.88-25 mg/kg and ciprofloxacin 20 mg/kg, lung, p<0.001", "result": "significant reduction of the CFU levels"}, {"measurement": "Top level", "setting": "[3]; compound 1 s.c. in presence of 20 mg/kg ciprofloxacin (s.c., 3 h post infection), murine lungs", "result": "−0.21", "unit": "log10 CFU/ml"}, {"measurement": "1 log killing dose", "setting": "[3]; [6]", "result": 0.45, "unit": "mg/kg"}, {"measurement": "2 log killing dose", "setting": "[3]; [6]", "result": 1.00, "unit": "mg/kg"}, {"measurement": "3log killing dose", "setting": "[3]; [6]", "result": 1.82, "unit": "mg/kg"}, {"measurement": "Bottom level", "setting": "[3]; [6]", "result": "−4.17", "unit": "log10 CFU/ml"}, {"measurement": "Emax", "setting": "[3]; [6]", "result": 3.96, "unit": "log10 CFU/ml"}, {"measurement": "ED50", "setting": "[3]; in presence of fixed dose of 20 mg/kg ciprofloxacin, murine lungs", "result": 1.55, "unit": "mg/kg"}]}
